Data set [1] is described as follows: In vitro dissolution (USP apparatus II, paddle). To be noted: 0.45% w/v SLS in 0.05 M acetate buffer pH 4.5, 37 °C. The class given is physicochemical. The protocol: The samples were mixed in a 5 mL tube with 2 mL of the solvent at a concentration of 1 mg/mL using a multi-mixer (SLRM-3, Seoulin Biosciences, Pangyo, Republic of Korea) for 48 h at 25 °C. The mixtures were then centrifuged at 13,000 rpm for 10 min (Eppendorf 5425R, Hamburg, Germany) and manually filtered using a 0.45 μm polytetrafluoroethylene (PTFE-H) syringe filter. The absorbance of the filtered samples at 233 nm was measured using a UV-VIS spectrophotometer. Similarly, dissolution was assessed using the USP dissolution apparatus II (paddle) (Varian 705 DS, Cary, NC, USA) at 50 rpm in 500 mL of 0.45% w/v SLS in 0.05 M acetate buffer (pH 4.5) at 37 ± 0.5 °C. The cocrystal samples (equivalent to 10 mg ezetimibe) were weighed and added into the dissolution vessel (n = 3). Aliquots were collected at predetermined time points: 5 min, 10 min, 15 min, 30 min, 45 min, 60 min, 90 min, and 120 min. The displaced volume was replenished with fresh buffer after each sampling. The collected samples were filtered through a 0.45 µm RC syringe filter and subjected to UV-VIS spectrophotometer.

Data set [2] in a line: In vivo pharmacokinetics after single oral gavage. To be noted: rat, male Sprague Dawley rats, fasted, plasma, table prints dose 10 mg/kg for all groups (methods: CRYS101 10 mg/kg, CRYS102-104 30 mg/kg). The method, then:
The stock standard solution was prepared by dissolving ezetimibe at 0.5 mg/mL in 40% MeOH. The absorbance of the standards was measured at 233 nm using UV-VIS spectrophotometer (Optizen pop, Mecasys®, Seoul, Republic of Korea). The bioanalysis was performed using validated LC-MS/MS methods with MRM detection (details in Supplementary Materials). The method was developed using an Agilent 1290 Infinity II BioLC system coupled with an Agilent 6495D Triple-Quadrupole mass spectrometer, employing electrospray ionization (ESI). Chromatographic separation was achieved on a Kintex C18 column (2.6 μm, 100 × 3 mm) maintained at 30 °C, using an isocratic mobile phase of water-acetonitrile (20:80 v/v) at 0.25 mL/min flow rate. The run time was optimized to 5 min with a 2 μL injection volume. Mass spectrometric detection utilized multiple reaction monitoring (MRM) in negative polarity mode for ezetimibe ([M − H]^− m/z 408.1 → 271.1) and positive mode for the internal standard itraconazole ([M + H]^+ m/z 705.2 → 391.6). Detailed description is included in the Supplementary Materials.
In vivo pharmacokinetic profile of ezetimibe cocrystal formulations was assessed in male Sprague Dawley rats (n = 4 per group, 7–8-week-old, mean weight 271.1 g). The SD rats were obtained from G-Bio (Gwangju, Republic of Korea). They were maintained under a 12 h light/dark cycle and provided with free access to food and water. The animal experimental protocol was approved by the Institutional Animal Care and Use Committee (IACUC) of Mokpo National University (Mokpo, Republic of Korea; approval no. MNU-IACUC-2025-015).
The rats were fasted overnight before oral administration, and four formulation groups received single oral doses through gavage: Group 1 (CRYS101) at 10 mg/kg and Groups 2–4 (CRYS102-104) at 30 mg/kg. Blood samples (200 μL) were collected from the femoral artery at predetermined time points after the administration. The collected samples were centrifuged at 16,000× g for 5 min at 4 °C, and the plasma was stored at −70 °C until analysis. The plasma samples analyzed using a validated UPLC-MS/MS method with 1 ng/mL lower quantification limit.

For `O=C1[C@H](CC[C@H](O)c2ccc(F)cc2)[C@@H](c2ccc(O)cc2)N1c1ccc(F)cc1` [Ezetimibe], the “In vitro release at 120 min” value in data set [1] is 45%. Further, in data set [2] (SD not determined), the AUC(0-inf) was found to be 41.8 ng·h/mL. In data set [2] (n = 4/group, mean ± SD), the AUC(0-t) amounted to 11 ± 8.63 ng·h/mL, the Cmax came out at 6.73 ± 4.29 ng/mL and the Tmax was 1.33 ± 0.76 h.

(Values after paper PMC12655579, “Cocrystallization of Ezetimibe with Organic Acids: Stoichiometric Optimization for Improved Solubility and Bioavailability” (Pharmaceutics, 2025).)
